Data taken from patent US20260042764A1, “COMPOSITIONS AND METHODS FOR INHIBITION OF KRAS” (TheRas, Inc., priority 2022, published 2026).

Key:
[1] = target: T1, Avi-KRAS G12C (2-169) GTP/RAF1 RBD-3xFLAG (51-131) (Homo sapiens, UniProt P01116, G12C); assay: Raf1-KRAS G12C-GTP disruption HTRF assay (Biological Example 3); format: binding; settings: KRAS G12C, GTP-loaded
T1 construct: Avi-KRAS G12C (2-169)
Summary of the method: (§1)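 50 nM Avi-KRAS (2-169) GTP/RAF1 RBD complex; 75 nM RBD-Avi; pH 7.5 Tris buffer, 10% DMSO; cpd 30 μM top, 3x, 10 pts; 1 h RT, 700 rpm; HTRF, % of DMSO.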

[2] = target: T2, Avi-KRAS G12D (1-169) GppNHp/RAF1 RBD-3xFLAG (52-151) (Homo sapiens, UniProt P01116, G12D); assay: Raf1-KRAS G12D-GppNHP disruption HTRF assay (Biological Example 1); format: binding; settings: KRAS G12D-GppNHp/RAF1 RBD HTRF
T2 construct: Avi-KRAS G12D (1-169)
Summary of the method: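 Using HTRF, the loss of KRAS–effector RAF1 complex was quantified in 50 mM Tris pH 7.5 buffer with 100 mM NaCl and 0.1% BSA. The protein step and reagent step ran 1 h each at room temperature. Activity normalized with DMSO taken as 100%.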

SW620 cells (KRAS G12V) = assay: Cell-based pERK HTRF assay in SW620 cell (Biological Example 4)
Summary of the method: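 Read-out: HTRF pERK signal (excitation 320 nm, emission 615 nm) from lysates of SW620 cells after 4 h compound exposure. Dose range was 9 points, half-log steps from 1 μM, in 0.25% DMSO; antibody incubation ran 4–24 h at room temperature.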

[3] = target: T3, Avi-KRAS G12D (2-169) GTP/RAF1 RBD-3xFLAG (51-131) (Homo sapiens, UniProt P01116, G12D); assay: Raf1-KRAS G12D-GTP disruption HTRF assay (Biological Example 3); format: binding; settings: KRAS G12D, GTP-loaded
T3 construct: Avi-KRAS G12D (2-169)
Summary of the method: as §1

[4] = Homo sapiens, SW-620, SW620 (KRAS G12V) cells
[5] = Homo sapiens, SW-620, SW620 (KRAS G12V) cells, pERK HTRF
[6] = SW620 (KRAS G12V) cells, pERK HTRF

T1 sequence (P01116 2-169 isoform P01116-2 G12C): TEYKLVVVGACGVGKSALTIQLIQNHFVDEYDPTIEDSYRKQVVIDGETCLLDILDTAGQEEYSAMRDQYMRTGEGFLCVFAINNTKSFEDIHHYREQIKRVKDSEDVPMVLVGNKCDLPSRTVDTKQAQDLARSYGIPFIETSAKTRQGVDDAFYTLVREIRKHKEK
T3 sequence (P01116 2-169 isoform P01116-2 G12D): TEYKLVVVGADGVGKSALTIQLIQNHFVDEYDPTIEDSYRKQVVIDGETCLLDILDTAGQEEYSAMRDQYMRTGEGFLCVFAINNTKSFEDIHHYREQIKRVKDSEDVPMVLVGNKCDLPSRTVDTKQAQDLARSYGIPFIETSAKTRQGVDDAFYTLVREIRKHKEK
T2 sequence (P01116 1-169 isoform P01116-2 G12D): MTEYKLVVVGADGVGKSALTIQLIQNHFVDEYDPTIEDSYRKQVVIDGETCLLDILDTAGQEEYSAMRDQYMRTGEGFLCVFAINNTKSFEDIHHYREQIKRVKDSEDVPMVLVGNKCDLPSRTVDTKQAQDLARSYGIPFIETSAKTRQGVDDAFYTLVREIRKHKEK

IC50 [1] [nM]	IC50 [2] [nM]	IC50 (SW620 cells (KRAS G12V); [4]) [nM]	IC50 (SW620 cells (KRAS G12V); [5]) [nM]	IC50 [3] [nM]	IC50 (SW620 cells (KRAS G12V); [6]) [nM]	IC50 (SW620 cells (KRAS G12V); SW620 (KRAS G12V) cells) [nM]	SMILES
100 to 1000	100 to 1000	< 100	< 100	100 to 1000			CCN(c1nc(OC[C@@]23CCCN2C[C@H](F)C3)nc2c(F)c(-c3ccc(F)c4sc(N)c(C#N)c34)c(C(F)(F)F)cc12)[C@@H]1C[C@H]2CCC(=O)N2C1 (atropisomer, axis not shown) [Compound 532]
100 to 1000	< 100	< 100	< 100	100 to 1000			CN(C)C(=O)c1nn2c(c1Cl)CN(c1nc(OC[C@@]34CCCN3C[C@H](F)C4)nc3c(F)c(-c4ccc(F)c5sc(N)c(C#N)c45)c(C(F)(F)F)cc13)CC2 [Compound 517]
100 to 1000	100 to 1000	< 100	< 100	100 to 1000			CCC(=O)N1C[C@H](N(CC)c2nc(OC[C@@]34CCCN3C[C@H](F)C4)nc3c(F)c(-c4ccc(F)c5sc(N)c(C#N)c45)c(C(F)(F)F)cc23)C[C@@H]1C (atropisomer, axis not shown) [Compound 533]
100 to 1000	< 100	< 100	< 100	100 to 1000			Cc1c(C(=O)N(C)C)nn2c1CN(c1nc(OC[C@@]34CCCN3C[C@H](F)C4)nc3c(F)c(-c4ccc(F)c5sc(N)c(C#N)c45)c(C(F)(F)F)cc13)CC2 [Compound 501]
100 to 1000	< 100	< 100		≤ 100	< 100		CCN(c1nc(OC[C@@]23CCCN2C[C@H](F)C3)nc2c(F)c(-c3ccc(F)c4sc(N)c(C#N)c34)c(C(F)(F)F)cc12)[C@@H]1CCN(C(=O)C2CC2)[C@@H]1C (atropisomer, axis not shown) [Compound 524]
≤ 100	< 100	< 100	< 100	≤ 100			CCN(c1nc(OC[C@@]23CCCN2C[C@H](F)C3)nc2c(F)c(-c3ccc(F)c4sc(N)c(C#N)c34)c(C(F)(F)F)cc12)[C@H]1CCN(C(=O)C(C)C)C1 (single isomer, unassigned) [Compound 469]
100 to 1000	100 to 1000	< 100	< 100	100 to 1000			CCN(c1nc(OC[C@@]23CCCN2C[C@H](F)C3)nc2c(F)c(-c3ccc(F)c4sc(N)c(C#N)c34)c(C(F)(F)F)cc12)[C@@H]1CC(=O)N(C)C1 [Compound 520]
1000 to 10000	100 to 1000	< 100	< 100	1000 to 10000			CCN(c1nc(OC[C@@]23CCCN2C[C@H](F)C3)nc2c(F)c(-c3ccc(F)c4sc(N)c(C#N)c34)c(C(F)(F)F)cc12)[C@@H]1C[C@@H]2CCC(=O)N2C1 [Compound 511]
	< 100		< 100				CCN(c1nc(OC[C@@]23CCCN2C[C@H](F)C3)nc2c(F)c(-c3ccc(F)c4sc(N)c(C#N)c34)c(C(F)(F)F)cc12)[C@H]1C[C@H](C)N(C(=O)C2CC2)C1 [Compound 470]
≤ 100	< 100			≤ 100	< 100	< 100	CCN(c1nc(OC[C@@]23CCCN2C[C@H](F)C3)nc2c(F)c(-c3ccc(F)c4sc(N)c(C#N)c34)c(C(F)(F)F)cc12)[C@H]1CCN(C(=O)OC)C1 (atropisomer, axis not shown) [Compound 541, methyl(3S)-3-[[7-(2-amino-3-cyano-7-fluoro-benzothiophen-4-yl)-8-fluoro-2-[[(2R,8S)-2-fluoro-1,2,3,5,6,7-hexahydropyrrolizin-8-yl]methoxy]-6-(trifluoromethyl)quinazolin-4-yl]-ethyl-amino]pyrrolidine-1-carboxylate]
100 to 1000	100 to 1000	< 100	< 100	100 to 1000			CCN(c1nc(OC[C@@]23CCCN2C[C@H](F)C3)nc2c(F)c(-c3ccc(F)c4sc(N)c(C#N)c34)c(C(F)(F)F)cc12)[C@@H]1C[C@H](C)N(C(C)=O)C1 (atropisomer, axis not shown) [Compound 534]
≤ 100	< 100	< 100	< 100	≤ 100			CCN(c1nc(OC[C@@]23CCCN2C[C@H](F)C3)nc2c(F)c(-c3ccc(F)c4sc(N)c(C#N)c34)c(C(F)(F)F)cc12)[C@H]1C[C@H](C)N(C(=O)COC)C1 (atropisomer, axis not shown) [Compound 538]
	1000 to 10000		< 100				N#Cc1c(N)sc2c(F)ccc(-c3c(C(F)(F)F)cc4c(N5CCn6nc(N7CCOCC7)cc6C5)nc(OC[C@@]56CCCN5C[C@H](F)C6)nc4c3F)c12 [Compound 485]
100 to 1000	< 100	< 100	< 100	100 to 1000			CCN(c1nc(OC[C@@]23CCCN2C[C@H](F)C3)nc2c(F)c(-c3ccc(F)c4sc(N)c(C#N)c34)c(C(F)(F)F)cc12)[C@H]1C[C@H](C)N(C(=O)C2COC2)C1 (atropisomer, axis not shown) [Compound 539]
	< 100		< 100				CCOC(=O)N1CC[C@H](N(CC)c2nc(OC[C@@]34CCCN3C[C@H](F)C4)nc3c(F)c(-c4ccc(F)c5sc(N)c(C#N)c45)c(C(F)(F)F)cc23)C1 [Compound 467]
100 to 1000	< 100	< 100	< 100	≤ 100			CCN(c1nc(OC[C@@]23CCCN2C[C@H](F)C3)nc2c(F)c(-c3ccc(F)c4sc(N)c(C#N)c34)c(C(F)(F)F)cc12)[C@H]1C[C@@H]2COC(=O)N2C1 (atropisomer, axis not shown) [Compound 519]
100 to 1000	100 to 1000	< 100	< 100	100 to 1000			CN(C)C(=O)[C@@H]1CC[C@@H](N(C)c2nc(OC[C@@]34CCCN3C[C@H](F)C4)nc3c(F)c(-c4ccc(F)c5sc(N)c(C#N)c45)c(C(F)(F)F)cc23)C1 (atropisomer, axis not shown) [Compound 512]
	< 100				< 100		CCN(c1nc(OC[C@@]23CCCN2C[C@H](F)C3)nc2c(F)c(-c3ccc(F)c4sc(N)c(C#N)c34)c(C(F)(F)F)cc12)[C@H]1CCS(=O)(=O)C1 (atropisomer, axis not shown) [Compound 492]
100 to 1000	< 100	< 100	< 100	100 to 1000			CCN(c1nc(OC[C@@]23CCCN2C[C@H](F)C3)nc2c(F)c(-c3ccc(F)c4sc(N)c(C#N)c34)c(C(F)(F)F)cc12)C1C[C@@H](C)N(C(=O)C2CC2)C1 (stereo partly shown) [Compound 516]
≤ 100		< 100		≤ 100			CCN(c1nc(OC[C@@]23CCCN2C[C@H](F)C3)nc2c(F)c(-c3ccc(F)c4sc(N)c(C#N)c34)c(C(F)(F)F)cc12)[C@H]1CCN(C(=O)N(C)C)C1 (atropisomer, axis not shown) [Compound 540, (3S)-3-[[7-(2-amino-3-cyano-7-fluoro-benzothiophen-4-yl)-8-fluoro-2-[[(2R,8S)-2-fluoro-1,2,3,5,6,7-hexahydropyrrolizin-8-yl]methoxy]-6-(trifluoromethyl)quinazolin-4-yl]-ethyl-amino]-N,N-dimethyl-pyrrolidine-1-carboxamide]
≤ 100	< 100	< 100		≤ 100	< 100		CCC(=O)N1CC[C@@H](N(CC)c2nc(OC[C@@]34CCCN3C[C@H](F)C4)nc3c(F)c(-c4ccc(F)c5sc(N)c(C#N)c45)c(C(F)(F)F)cc23)[C@H]1C (atropisomer, axis not shown) [Compound 523]
	1000 to 10000		< 100				Cc1cc2n(n1)CCN(c1nc(OCC34CCCN3CC(F)C4)nc3c(F)c(-c4ccc(F)c5sc(N)c(C#N)c45)c(C(F)(F)F)cc13)C2 (stereo not shown) [Compound 484]
100 to 1000	< 100	< 100	< 100	≤ 100			CCN(c1nc(OC[C@@]23CCCN2C[C@H](F)C3)nc2c(F)c(-c3ccc(F)c4sc(N)c(C#N)c34)c(C(F)(F)F)cc12)[C@H]1CCN(C(=O)c2ccon2)C1 (atropisomer, axis not shown) [Compound 554]
	> 10000				> 1000		CCN(c1nc(OC[C@@]23CCCN2C[C@H](F)C3)nc2c(F)c(-c3ccc(F)c4sc(N)c(C#N)c34)c(C(F)(F)F)cc12)[C@H]1CCN(C(=O)C(C)C)C1 (atropisomer, axis not shown) [Compound 468]
